{"source": "patent US20240335499A1", "about": "“PEPTIDE HAVING ANTIDIABETIC ACTIVITY AND USE THEREOF” (MEDI&GENE INC., priority 2021, published 2024)", "key": {"[1]": {"test_system": "S6 (mTOR marker)", "assay": "S6 phosphorylation in L6 skeletal muscle cells (western blotting)", "assay_type": "cell-based", "conditions": "100 nM, 1 hour; for phosphorylation of S6 (mTOR marker): FIG. 8", "protocol": "(§1) L6 skeletal muscle cells were cultured in a 6-well plate and then starved with 0.5% FBS. Thereafter, the cells were treated with an antidiabetic peptide at a concentration of 100 nM for 1 hour, proteins were collected, and then western blotting was performed."}, "[2]": {"test_system": "FoxO1", "assay": "FoxO1 phosphorylation and expression in L6 skeletal muscle cells (western blotting)", "assay_type": "cell-based", "conditions": "100 nM, 1 hour", "protocol": "as §1"}, "[3]": {"test_system": "glucose transporter type 4 (GLUT4)", "assay": "GLUT4 translocation to the cell membrane in C2C12 skeletal muscle cells", "assay_type": "cell-based", "conditions": "100 nM, 1 hour, FIG. 3: Nos. 1 to 8 and insulin", "protocol": "Similarly, in order to further verify the function of promoting glucose metabolism by antidiabetic peptide treatment, the degree of expression of a glucose transporter type 4 (GLUT4) glucose receptor, which plays an important role in glucose uptake, in the cell membrane was measured. It is known that GLUT4 moves from the cytoplasm to the cell membrane to promote sugar metabolism, and thus the expression level thereof increases. To confirm this, C2C12 skeletal muscle cells were starved with 0.5% FBS and then treated with the peptide and insulin, which is a positive control, at a concentration of 100 nM for 1 hour. Cells were fixed with 4% paraformaldehyde, incubated with a GLUT4-specific antibody at 37° C. for 30 minutes, reacted with an o-phenylenediamine (OPD) solution, and absorbance was measured and compared with that of the control."}, "[4]": {"test_system": "peroxisome proliferator-activated receptor α (PPARα)", "assay": "PPARα gene expression in muscle tissue of db/db mice", "assay_type": "in vivo, db/db diabetic mouse model", "conditions": "db/db mice muscle tissue RNA, 2.5 mg/kg intraperitoneally, 8 weeks", "protocol": "(§2) It was confirmed whether the antidiabetic peptide relieves diabetes mellitus induced by leptin receptor defects. As an animal model, 5-week-old C57BLKS/J-db/db male mice were provided by Central Lab. Animal Inc., fed a normal diet, and used after an adaptation period of one week. The breeding environment was maintained at 18 to 24° C. and a humidity of 50 to 60%, and the animals were given free access to normal feed and water during both the adaptation period and the experimental period. Mice that completed the adaptation period were divided into a control (intraperitoneal injection) and a peptide administration group. PBS and antidiabetic peptides (Nos. 7 and 8; 2.5 mg/kg) were intraperitoneally administered to the control and peptide administration groups, respectively, for a total of 8 weeks.\n(§3) Various tissue examinations were performed on a db/db diabetic mouse model to confirm the efficacy of relieving diabetic complications. First, in order to confirm muscle loss-related effects, RNA was isolated from muscle tissue and the expression levels of muscle loss-related genes were confirmed. […]"}, "[5]": {"test_system": "CCAAT enhancer binding protein α (C/EBPα)", "assay": "C/EBPα gene expression in muscle tissue of db/db mice", "assay_type": "in vivo, db/db diabetic mouse model", "conditions": "db/db mice muscle tissue RNA, 2.5 mg/kg intraperitoneally, 8 weeks", "protocol": "as §2, §3"}, "[6]": {"test_system": "muscle RING Finger-1 (Murf-1)", "assay": "Murf-1 gene expression in muscle tissue of db/db mice", "assay_type": "in vivo, db/db diabetic mouse model", "conditions": "db/db mice muscle tissue RNA, 2.5 mg/kg intraperitoneally, 8 weeks", "protocol": "as §2, §3"}, "[7]": {"test_system": "adipocyte protein 2 (AP2)", "assay": "AP2 gene expression in muscle tissue of db/db mice", "assay_type": "in vivo, db/db diabetic mouse model", "conditions": "db/db mice muscle tissue RNA, 2.5 mg/kg intraperitoneally, 8 weeks", "protocol": "as §2, §3"}, "[8]": {"test_system": "obese mouse model", "assay": "Glucose tolerance in high-fat-diet obese mouse model", "assay_type": "in vivo, C57BL/6N male mice", "conditions": "obese mice, 2.5 mg/kg", "protocol": "5-week-old C57BL/6N male mice were obtained from Orient Bio, fed a normal diet, and used after an adaptation period of one week. The breeding environment was maintained at 18 to 24° C. and a humidity of 50 to 60%, and the animals were given free access to feed and water during both the adaptation period and the experimental period. After the one-week adaptation period, the mice were induced to become obese through a high-fat diet to induce impaired glucose tolerance.\nThe mice in which obesity was induced were divided into a control and an experimental group. All mice were fasted for 12 hours, and PBS and a peptide (No. 1, 7, or 8; 2.5 mg/kg) were administered to the control and the experimental group, respectively. One hour later, a 20% glucose solution was intraperitoneally injected, and blood collected at each time period was analyzed using a blood glucose analyzer."}}, "data": [{"substance": "EQAEEER (listed as Homo sapiens) [No. 2]", "values": [{"measurement": "phosphorylation of S6 protein, increase", "setting": "[1]", "value": 365, "unit": "%"}]}, {"substance": "YFR (listed as Homo sapiens) [No. 1]", "values": [{"measurement": "expression level of total FoxO1", "setting": "[2]", "value": "decreased"}, {"measurement": "phosphorylation of FoxO1", "setting": "[2]; FIG. 9: Nos. 1 to 8", "value": "increased"}, {"measurement": "phosphorylation of S6 protein, increase", "setting": "[1]", "value": 188, "unit": "%"}]}, {"substance": "insulin", "values": [{"measurement": "GLUT4 translocation compared to the control", "setting": "[3]", "value": "significant GLUT4 translocation"}]}, {"substance": "REAGGAFGKR (listed as Homo sapiens) [No. 3]", "values": [{"measurement": "phosphorylation of S6 (mTOR marker)", "setting": "[1]", "value": "increased"}]}, {"substance": "VDRGAGSIREAGGAFGKREQAEEERYFR (listed as Homo sapiens) [No. 8]", "values": [{"measurement": "PPARα gene expression change", "setting": "[4]", "value": "+12.9%"}, {"measurement": "C/EBPα gene expression change", "setting": "[5]", "value": "−45.5", "unit": "%"}, {"measurement": "Murf-1 gene expression change", "setting": "[6]", "value": "−36.0", "unit": "%"}, {"measurement": "AP2 gene expression change", "setting": "[7]", "value": "−54.7", "unit": "%"}, {"measurement": "blood sugar metabolism after glucose injection, baseline corrected, compared to the control", "setting": "[8]; fasted 12 hours, 20% glucose intraperitoneally one hour later, FIG. 4 left", "value": "significantly improving"}, {"measurement": "phosphorylation of S6 protein, increase", "setting": "[1]", "value": 414, "unit": "%"}]}, {"substance": "AQSREQLAALKK (listed as Homo sapiens) [No. 5]", "values": [{"measurement": "phosphorylation of S6 protein, increase", "setting": "[1]", "value": 494, "unit": "%"}]}, {"substance": "YFRAQSREQLAALKKHH (listed as Homo sapiens) [No. 6]", "values": [{"measurement": "phosphorylation of S6 (mTOR marker)", "setting": "[1]", "value": "increased"}]}, {"substance": "EQAEEERYFR (listed as Homo sapiens) [No. 4]", "values": [{"measurement": "phosphorylation of S6 protein, increase", "setting": "[1]", "value": 224, "unit": "%"}]}, {"substance": "AGSIREAGGAFGKREQAEEERYFR (listed as Homo sapiens) [No. 7]", "values": [{"measurement": "PPARα gene expression change", "setting": "[4]", "value": "+94.1%"}, {"measurement": "C/EBPα gene expression change", "setting": "[5]", "value": "−18.6", "unit": "%"}, {"measurement": "Murf-1 gene expression change", "setting": "[6]", "value": "−90.1", "unit": "%"}, {"measurement": "AP2 gene expression change", "setting": "[7]", "value": "−52.5", "unit": "%"}, {"measurement": "change in blood sugar over time (GLUAUC) reduced compared to the control", "setting": "[8]; after baseline correction", "value": 31.1, "unit": "%"}, {"measurement": "phosphorylation of S6 (mTOR marker)", "setting": "[1]", "value": "increased"}]}]}
